Source: patent US20190270712A1, “COMPOSITIONS FOR THE TREATMENT OF PULMONARY FIBROSIS” (Vectus Biosystems Limited, priority 2016, published 2019)

How the values were obtained:
[1] = test system: human small airway epithelial cells; assay: In vitro screening: xCELLigence SP cellular impedance (cell index); type: cell-based; conditions: 10 μM, 20 μM or 30 μM test compound, 0.25% DMSO, measured every 20 seconds for 3 hours
Method: The xCELLigence SP system (Roche) was used to measure changes in cellular impedance (cell index) following the treatment of human small airway epithelial cells (ATCC) with test compound.
Briefly, 50 μl of cell culture medium (DMEM low glucose supplemented with 15% fetal bovine serum at 37° C.) was added to each well of an E-Plate 96 (Roche), and the background impedance in each well was measured. 50 μl of human small airway epithelial cell suspension (10,000 cells/well) was then added to the appropriate wells of the E-Plate 96. Cell index was monitored for each well of the E-Plate 96 in a RTCA SP Station within the cell culture incubator. After overnight incubation for 16-20 hours at 5% CO2 and 95% humidity, 100 μl of test compound solution (test compounds were prepared in DMSO and diluted with cell culture medium to a concentration of 10 μM, 20 μM or 30 μM of test compound with a final DMSO concentration of 0.25%) was added to the appropriate wells of the E-Plate 96 and cell index values were measured immediately following compound treatment every 20 seconds for 3 hours. Cell index value is baseline-corrected by subtracting the cell index of vehicle-treated cells and normalized by dividing by the cell index at the time point immediately before compound addition. Baseline normalized cell index as a function of time is plotted using Roche RTCA software.

lung fibrosis = assay: In vivo screening: bleomycin-treated spontaneous hypertensive rats, lung fibrosis quantitated by histomorphometry (Masson Trichrome); conditions: SHR given bleomycin at 14 weeks, 500 pmol/kg/min in drinking solution (5% ethanol) for 4 weeks from 16 weeks of age; for Fibrosis in the lung compared to 16 week controls: vs 16 week control (reversal of established fibrosis); for Fibrosis in the lung compared to 20 week controls: vs 20 week vehicle control (prevention)
Method: Fourteen week old spontaneous hypertensive rats (SHR) were anaesthetised using 3% isoflurane, the tongue was gently pulled forward and bleomycin […] in 200 μL of normal saline placed in the distal oropharynx using a micropipette while the nose is gently closed. Rats were then left to recover from anaesthesia. At 16 weeks of age SHR were randomised to control (16 weeks or 20 weeks) or treated groups. The 16 week controls were anaesthetised and had blood sampled and tissues harvested. The 20 week controls received drinking solution alone (5% ethanol) while the treated groups received test compound dissolved in the drinking water with concentration adjusted twice weekly to maintain a dose of 500 pmol/kg/min for 4 weeks. At 20 weeks of age rats were anaesthetised and had blood sampled and tissues harvested.
For histological examination lungs were fixed in formalin and sections from each of two levels were stained using Masson Trichrome. Fibrosis was quantitated by histomorphometry by an observer blinded to experimental group.

## O=C1NCCC1Cc1cc(-c2ccccc2)ccc1-c1cccc(O)c1 (stereo not drawn) [A26]
[1]
  Cellular impedance (baseline normalized cell index) response: Negative impedance responses

## NC(=O)CCc1cc(-c2cccnn2)ccc1-c1cccc(O)c1 [P14, 3-[3′-Hydroxy-4-(pyridazin-3-yl)biphenyl-2-yl]propanamide]
[1]
  Cellular impedance (baseline normalized cell index) response: Negative impedance responses

## Nc1nocc1Cc1cc(-c2ccccc2)ccc1-c1cccc(O)c1 [A35]
[1]
  Cellular impedance (baseline normalized cell index) response: Negative impedance responses

## O=C1NC(=O)C(Cc2cc(-c3ccccc3)ccc2-c2cccc(O)c2)N1 (stereo not drawn) [A32]
Lung fibrosis
  Fibrosis in the lung compared to 16 week controls: decreased
  Fibrosis in the lung compared to 20 week controls: decreased
[1]
  Cellular impedance (baseline normalized cell index) response: Negative impedance responses

## NC(=O)C=Cc1cc(-c2cncnc2)ccc1-c1ccnc(N)c1 [D171, 3-[2-(2-Aminopyridin-4-yl)-5-(pyrimidin-5-yl)phenyl]propenamide]
[1]
  Cellular impedance (baseline normalized cell index) response: Negative impedance responses

## CS(=O)(=O)Nc1cc(NS(C)(=O)=O)cc(-c2ccc(-c3cncnc3)cc2CCC(N)=O)c1 [D4]
[1]
  Cellular impedance (baseline normalized cell index) response: Negative impedance responses

## CS(=O)(=O)NC1=CC(c2cccc(NS(C)(=O)=O)c2)(c2cnccn2)CC(CCC(N)=O)=C1 (stereo not drawn) [D16, 3-(3′,5-Bis((methylsulfonyl)amino)-1-(pyrazin-2-yl)biphenyl-3-yl)propanamide]
[1]
  Cellular impedance (baseline normalized cell index) response: Negative impedance responses

## O=C1NCC/C1=C\c1cc(-c2ccccc2)ccc1-c1cccc(O)c1 [A27]
[1]
  Cellular impedance (baseline normalized cell index) response: Negative impedance responses

## Cc1nc(C)c(-c2ccc(-c3cccc(NS(C)(=O)=O)c3)c(CCC(N)=O)c2)s1 [D32, 4-(2,4-Dimethyl-1,3-thiazol-5-yl)-3-(3′-((methylsulfonyl)amino)biphenyl-2-yl)propanamide]
[1]
  Cellular impedance (baseline normalized cell index) response: Negative impedance responses

## CS(=O)(=O)Nc1cc(-c2ccc(-c3cccnn3)cc2CCC(N)=O)ccn1 [D11, 3-(2-(2-((Methylsulfonyl)amino)pyridin-4-yl)-5-(pyridazin-3-yl)phenyl)propanamide]
[1]
  Cellular impedance (baseline normalized cell index) response: negative deflection

## NC(=O)CCc1cc(-c2cccnn2)ccc1-c1cc(N)ncn1 [D12, 3-(2-(6-Aminopyrimidin-4-yl)-5-(pyridazin-3-yl)phenyl)propanamide]
[1]
  Cellular impedance (baseline normalized cell index) response: Negative impedance responses

## NOCCc1cc(-c2ccccc2)ccc1-c1cccc(O)c1 [A56]
[1]
  Cellular impedance (baseline normalized cell index) response: Negative impedance responses

## CNS(=O)(=O)Nc1cccc(-c2ccc(-c3cccnc3)cc2CCC(N)=O)c1 [D31, 3-(3′-((Methylsulfamoyl)amino)-4-(pyridin-3-yl)biphenyl-2-yl)propanamide]
[1]
  Cellular impedance (baseline normalized cell index) response: Negative impedance responses

## NC(=O)C=Cc1cc(-c2cncnc2)ccc1-c1cc(N)cc(N)c1 [D172, 3-(2-(3,5-Diaminophenyl)-5-(pyrimidin-5-yl)phenyl)propenamide]
[1]
  Cellular impedance (baseline normalized cell index) response: Negative impedance responses

## Cc1n[nH]c(C)c1-c1ccc(-c2cccc(O)c2)c(CCC(N)=O)c1 [P42]
[1]
  Cellular impedance (baseline normalized cell index) response: Negative impedance responses

## NC(=O)CCc1cc(-c2cnccn2)ccc1-c1cccc(O)c1 [P13, 3-[3′-Hydroxy-4-(pyrazin-2-yl)biphenyl-2-yl]propanamide]
Lung fibrosis
  Fibrosis in the lung compared to 20 week controls: decreased
[1]
  Cellular impedance (baseline normalized cell index) response: Negative impedance responses

## NC(=O)CCc1cc(-c2cnccn2)ccc1-c1cc(N)ncn1 [D18, 3-(2-(6-Aminopyrimidin-4-yl)-5-(pyrazin-2-yl)phenyl)propanamide]
[1]
  Cellular impedance (baseline normalized cell index) response: Negative impedance responses

## NC(=O)CCc1cc(-c2ccccc2)ccc1-c1cccc(O)c1 [VB0004]
Lung fibrosis
  Fibrosis in the lung compared to 16 week controls: decreased
  Fibrosis in the lung compared to 20 week controls: decreased
[1]
  Cellular impedance (baseline normalized cell index) response: Negative impedance responses

## NC(=O)CCc1cc(-c2cccnc2)ccc1-c1ccc2[nH]c(=O)[nH]c2c1 [D30, 3-(2-(2-Oxo-2,3-dihydro-1H-benzimidazol-5-yl)-5-(pyridin-3-yl)phenyl)propanamide]
Lung fibrosis
  Fibrosis in the lung compared to 16 week controls: decreased
  Fibrosis in the lung compared to 20 week controls: decreased
[1]
  Cellular impedance (baseline normalized cell index) response: Negative impedance responses

## Cc1cscc1-c1ccc(-c2cccc(O)c2)c(CCC(N)=O)c1 [P44]
[1]
  Cellular impedance (baseline normalized cell index) response: Negative impedance responses

## CS(=O)(=O)Nc1cc(-c2ccc(-c3cnccn3)cc2CCC(N)=O)ccn1 [D17, 3-[2-(2-[(Methylsulfonyl)amino]pyridin-4-yl)-5-(pyrazin-2-yl)phenyl]propanamide]
[1]
  Cellular impedance (baseline normalized cell index) response: Negative impedance responses

## NC(=O)CCc1cc(-c2cncnc2)ccc1-c1cc(N)ncn1 [D6, 3-(2-(6-Aminopyrimidin-4-yl)-5-(pyrimidin-5-yl)phenyl)propanamide]
Lung fibrosis
  Fibrosis in the lung compared to 16 week controls: decreased
  Fibrosis in the lung compared to 20 week controls: decreased
[1]
  Cellular impedance (baseline normalized cell index) response: Negative impedance responses

## NC(=O)CCc1cc(-c2cccnc2)ccc1-c1cccc(NC(=O)Nc2cccc(-c3ccc(-c4cccnc4)cc3CCC(N)=O)c2)c1 [D167]
[1]
  Cellular impedance (baseline normalized cell index) response: Negative impedance responses

## CCOC(=O)C(Cc1cc(-c2cncnc2)ccc1-c1cc(N)ncn1)C(=O)OCC [D5, Diethyl (2-(6-aminopyrimidin-4-yl)-5-(pyrimidin-5-yl)benzyl)propanedioate]
[1]
  Cellular impedance (baseline normalized cell index) response: Negative impedance responses

## Cc1ccsc1-c1ccc(-c2cccc(O)c2)c(CCC(N)=O)c1 [P43]
[1]
  Cellular impedance (baseline normalized cell index) response: Negative impedance responses

## O=C1NC(=O)C(Cc2cc(-c3ccccc3)ccc2-c2cccc(O)c2)O1 (stereo not drawn) [A79]
Lung fibrosis
  Fibrosis in the lung compared to 16 week controls: decreased
  Fibrosis in the lung compared to 20 week controls: decreased
[1]
  Cellular impedance (baseline normalized cell index) response: Negative impedance responses

## O=C1CC(Cc2cc(-c3ccccc3)ccc2-c2cccc(O)c2)C(=O)N1 (stereo not drawn) [A30]
[1]
  Cellular impedance (baseline normalized cell index) response: Negative impedance responses

## CS(=O)(=O)Nc1cccc(-c2ccc(-c3ccc(F)cc3)cc2CCC(N)=O)c1 [D35, 3-(4″-Fluoro-3-((methylsulfonyl)amino)-1,1′:4′,1″-terphenyl-2′-yl)propanamide]
[1]
  Cellular impedance (baseline normalized cell index) response: Negative impedance responses

## NC(CCc1cc(-c2ccccc2)ccc1-c1cccc(O)c1)C(F)(F)F (stereo not drawn) [A6]
Lung fibrosis
  Fibrosis in the lung compared to 16 week controls: decreased
  Fibrosis in the lung compared to 20 week controls: decreased
[1]
  Cellular impedance (baseline normalized cell index) response: Negative impedance responses

## CS(=O)(=O)Nc1cccc(-c2ccc(-c3cccnc3)cc2CCC(N)=O)c1 [D28, 3-(3′-((Methylsulfonyl)amino)-4-(pyridin-3-yl)biphenyl-2-yl)propanamide]
[1]
  Cellular impedance (baseline normalized cell index) response: Negative impedance responses

## CS(=O)(=O)Nc1cc(NS(C)(=O)=O)cc(-c2ccc(-c3cccnn3)cc2CCC(N)=O)c1 [D10]
[1]
  Cellular impedance (baseline normalized cell index) response: Negative impedance responses

## NC(=O)CCc1cc(-c2ccncn2)ccc1-c1cccc(O)c1 [P25, 3-[3′-Hydroxy-4-(pyrimidin-4-yl)biphenyl-2-yl]propanamide]
[1]
  Cellular impedance (baseline normalized cell index) response: Negative impedance responses
